Reference: patent US10077261B2, “Imidazolin-5-one derivative useful as FASN inhibitors for the treatment of cancer” (Janssen Pharmaceutica NV, priority 2012, dated 2018)

How the values were obtained:
[1] = target: T1, hFASN enzyme (full length) (Homo sapiens, UniProt P49327); experiment: Fatty Acid Synthase (FASN) inhibition scintillation proximity assay; type: biochemical; conditions: for inhibition at 10 µM: read-out: Human FASN % inhibition @ 10 μM, 10 μM test compound; for IC50: read-out: Human FASN pIC50 (converted)
T1 construct: 10 μL hFASN enzyme (full length, 300 ng, purified in house); made in house
Summary of the method: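 Read-out relies on hydrophobic ³H-palmitate product, formed from ³H-acetyl-CoA and malonyl-CoA, binding streptavidin imaging beads, measured at 610±20 nm after at least 24 h. Full-length enzyme (300 ng) in phosphate buffer pH 7.5 with DTT; eight compound concentrations, 0.01–30 μM.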

A2780 ovarian cells [2] = experiment: A2780 ovarian cell proliferation assay in lipid reduced medium, with palmitate (MTT); type: cell-based; conditions: Homo sapiens, A2780, 96 h; read-out: pIC50 A2780 Ovarian Cell, With Palmitate (converted)
Summary of the method: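 In this palmitate-supplemented format, compound dilutions (30 μM down to 0.01 μM) are added to cells in lipid-reduced serum with 25 μM palmitate, 0.2% fatty-acid-free BSA and 0.25% ethanol. After four days (96 h) MTT absorbance at 544 nm is recorded and fitted by minimum sum of squares.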

A2780 ovarian cells [3] = experiment: A2780 ovarian cell proliferation assay in lipid reduced medium, without palmitate (MTT); type: cell-based; conditions: Homo sapiens, A2780, 96 h; read-out: pIC50 A2780 Ovarian Cell, Without Palmitate (converted)
[4] = target: Fatty Acid Synthase Keto-reductase Domain (FASN KR) (Homo sapiens, UniProt P49327); experiment: Fatty Acid Synthase keto-reductase domain (FASN KR) inhibition, NADPH oxidation at 340 nm
Sequence of Fatty Acid Synthase Keto-reductase Domain (FASN KR) (P49327 whole entry, the tested form may be a part): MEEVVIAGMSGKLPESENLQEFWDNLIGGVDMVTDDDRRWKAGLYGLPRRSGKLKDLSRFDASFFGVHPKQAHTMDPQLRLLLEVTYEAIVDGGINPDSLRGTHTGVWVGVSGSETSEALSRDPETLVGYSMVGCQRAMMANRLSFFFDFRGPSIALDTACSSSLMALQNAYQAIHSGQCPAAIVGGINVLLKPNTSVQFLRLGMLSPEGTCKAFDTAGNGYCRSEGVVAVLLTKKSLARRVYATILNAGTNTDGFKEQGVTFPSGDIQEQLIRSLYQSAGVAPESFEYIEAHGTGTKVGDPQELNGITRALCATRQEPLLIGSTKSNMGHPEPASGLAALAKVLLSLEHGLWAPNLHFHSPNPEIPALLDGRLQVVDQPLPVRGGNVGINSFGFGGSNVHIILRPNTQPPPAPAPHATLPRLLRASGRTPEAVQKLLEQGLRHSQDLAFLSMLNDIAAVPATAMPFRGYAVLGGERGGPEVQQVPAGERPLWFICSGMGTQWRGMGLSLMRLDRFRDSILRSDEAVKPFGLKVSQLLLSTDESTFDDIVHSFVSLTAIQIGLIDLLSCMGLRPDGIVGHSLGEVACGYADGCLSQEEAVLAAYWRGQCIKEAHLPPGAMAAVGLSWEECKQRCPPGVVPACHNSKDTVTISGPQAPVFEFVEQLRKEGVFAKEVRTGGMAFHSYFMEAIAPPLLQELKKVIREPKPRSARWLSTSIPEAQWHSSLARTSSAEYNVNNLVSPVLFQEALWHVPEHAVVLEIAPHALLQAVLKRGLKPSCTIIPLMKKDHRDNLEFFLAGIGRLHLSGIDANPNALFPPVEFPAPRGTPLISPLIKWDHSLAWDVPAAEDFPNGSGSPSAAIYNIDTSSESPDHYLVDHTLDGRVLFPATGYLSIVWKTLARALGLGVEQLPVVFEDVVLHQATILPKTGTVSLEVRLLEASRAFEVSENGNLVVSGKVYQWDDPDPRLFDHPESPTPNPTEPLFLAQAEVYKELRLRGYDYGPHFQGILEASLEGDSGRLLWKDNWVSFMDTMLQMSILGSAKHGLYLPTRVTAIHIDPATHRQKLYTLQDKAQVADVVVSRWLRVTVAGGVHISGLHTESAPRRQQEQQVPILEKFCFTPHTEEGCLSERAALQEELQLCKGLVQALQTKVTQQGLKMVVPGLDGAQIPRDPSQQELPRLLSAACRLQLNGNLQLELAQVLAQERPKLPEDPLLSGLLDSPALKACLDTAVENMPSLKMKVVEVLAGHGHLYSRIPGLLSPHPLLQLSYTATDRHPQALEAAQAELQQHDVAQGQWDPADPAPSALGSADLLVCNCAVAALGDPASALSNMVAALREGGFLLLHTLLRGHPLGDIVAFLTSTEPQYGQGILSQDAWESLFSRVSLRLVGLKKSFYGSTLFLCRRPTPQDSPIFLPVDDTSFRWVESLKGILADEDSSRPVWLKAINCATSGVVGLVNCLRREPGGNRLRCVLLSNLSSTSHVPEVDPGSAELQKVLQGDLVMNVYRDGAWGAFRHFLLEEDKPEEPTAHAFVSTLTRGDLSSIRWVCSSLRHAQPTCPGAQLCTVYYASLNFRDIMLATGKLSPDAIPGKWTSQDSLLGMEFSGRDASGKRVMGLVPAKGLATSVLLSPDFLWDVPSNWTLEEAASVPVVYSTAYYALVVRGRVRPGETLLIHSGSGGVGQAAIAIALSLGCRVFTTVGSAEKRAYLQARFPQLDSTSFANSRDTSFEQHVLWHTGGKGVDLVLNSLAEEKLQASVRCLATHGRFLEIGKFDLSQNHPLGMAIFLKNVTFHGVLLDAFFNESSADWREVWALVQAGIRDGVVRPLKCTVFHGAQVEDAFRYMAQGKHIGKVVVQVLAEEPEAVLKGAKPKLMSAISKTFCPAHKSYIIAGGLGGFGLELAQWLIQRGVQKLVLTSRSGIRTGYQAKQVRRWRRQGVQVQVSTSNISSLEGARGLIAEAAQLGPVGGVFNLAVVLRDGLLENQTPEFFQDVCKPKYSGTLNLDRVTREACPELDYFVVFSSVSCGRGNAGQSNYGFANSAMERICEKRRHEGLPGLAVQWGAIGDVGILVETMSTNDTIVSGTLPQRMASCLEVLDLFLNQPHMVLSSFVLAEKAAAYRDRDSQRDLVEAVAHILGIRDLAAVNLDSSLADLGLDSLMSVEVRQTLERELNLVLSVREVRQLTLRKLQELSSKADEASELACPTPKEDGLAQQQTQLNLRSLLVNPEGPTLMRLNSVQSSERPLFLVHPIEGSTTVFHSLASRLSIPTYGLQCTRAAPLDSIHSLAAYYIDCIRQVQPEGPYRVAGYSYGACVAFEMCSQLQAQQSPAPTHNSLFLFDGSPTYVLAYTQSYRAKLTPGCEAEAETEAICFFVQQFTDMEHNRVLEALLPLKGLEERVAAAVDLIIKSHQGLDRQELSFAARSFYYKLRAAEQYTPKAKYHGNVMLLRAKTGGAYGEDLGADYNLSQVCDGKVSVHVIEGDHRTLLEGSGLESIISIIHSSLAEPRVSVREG
Procedure: After 20 minutes incubation at room temperature the plate was measured again (T2).
The decrease in absorbance was calculated as (Absorbance before incubation T1)−(Absorbance following incubation T2).
A plot of Controlmin versus test compound concentration was fitted to a 4-parameter logistic curve using a non-linear least squares regression method.

T1 sequence (P49327 whole entry): as the sequence (P49327 whole entry, the tested form may be a part) above

SMILES | inhibition at 10 µM [1] [%] | IC50 [1] [nM] | IC50 (A2780 ovarian cells [2]) [nM] | IC50 (A2780 ovarian cells [3]) [nM] | IC50 [4] [nM]
N#Cc1ccc(-c2ccc(C3=NC4(CCCC4)C(=O)N3C[C@@H]3CCN(C(=O)C4CC4)C3)cc2)cc1 [compound 1, 4′-(3-{[(3R)-1-(Cyclopropylcarbonyl)pyrrolidin-3-yl]methyl}-4-oxo-1,3-diazaspiro[4.4]non-1-en-2-yl)biphenyl-4-carbonitrile] | 93 | 575 | > 10000 | 1120 | 759
O=C(C1CC1)N1CC[C@@H](CN2C(=O)C3(CCCC3)N=C2c2ccc(-c3ccc4[nH]ccc4c3)cc2)C1 [compound 4, 3-{[(3R)-1-(Cyclopropylcarbonyl)pyrrolidin-3-yl]methyl}-2-[4-(1H-indol-5-yl)phenyl]-1,3-diazaspiro[4.4]non-1-en-4-one] | 103 | 33.9 | 5130 | 58.9 | 45.7
O=C(C1CC1)N1CCC(CN2C(=O)C3(CC3)N=C2c2ccc(-c3ccc4[nH]ccc4c3)cc2)CC1 [compound 10, 6-{[1-(Cyclopropylcarbonyl)piperidin-4-yl]methyl}-5-[4-(1H-indol-5-yl)phenyl]-4,6-diazaspiro[2.4]hept-4-en-7-one] | 89.7 | 204 | > 10000 | 871 | 501
O=C(C1CC1)N1CC[C@@H](CN2C(=O)C3(CCCC3)N=C2c2ccc(-c3ccc4ncccc4c3)cc2)C1 [compound 11, 3-{[(3R)-1-(Cyclopropylcarbonyl)pyrrolidin-3-yl]methyl}-2-(4-quinolin-6-ylphenyl)-1,3-diazaspiro[4.4]non-1-en-4-one] | 82.2 | 933 | > 10000 | ~3020 | 2040
O=C(C1CC1)N1CC[C@@H](CN2C(=O)C3(CCCC3)N=C2c2ccc(-c3ccc4cnccc4c3)cc2)C1 [compound 12, 3-{[(3R)-1-(Cyclopropylcarbonyl)pyrrolidin-3-yl]methyl}-2-(4-isoquinolin-6-ylphenyl)-1,3-diazaspiro[4.4]non-1-en-4-one] | 99.4 | 25.7 | 3800 | ~36.3 | 49
COC(=O)N1CCC2(CC1)N=C(c1ccc(-c3ccc4occc4c3)cc1)N(C[C@@H]1CCN(C(=O)C3CC3)C1)C2=O [compound 14, (R)-Methyl 2-(4-(benzofuran-5-yl)phenyl)-3-((1-(cyclopropanecarbonyl)pyrrolidin-3-yl)methyl)-4-oxo-1,3,8-triazaspiro[4.5]dec-1-ene-8-carboxylate] | 98.2 | 148 | > 10000 | 1230 | 302
COC(=O)N1CCC2(CC1)N=C(c1ccc(-c3ccc4[nH]ccc4c3)cc1)N(C[C@@H]1CCN(C(=O)C3CC3)C1)C2=O [compound 15, Methyl 3-{[(3R)-1-(cyclopropylcarbonyl)pyrrolidin-3-yl]methyl}-2-[4-(1H-indol-5-yl)phenyl]-4-oxo-1,3,8-triazaspiro[4.5]dec-1-ene-8-carboxylate] | 113 | 43.7 | > 10000 | ~63.1 | 70.8
COC(=O)N1CCC2(CC1)N=C(c1ccc(-c3ccc4[nH]ccc4c3)cc1)N(CC1CN(C(=O)C3CC3)C1)C2=O [compound 17, Methyl 3-{[1-(cyclopropylcarbonyl)azetidin-3-yl]methyl}-2-[4-(1H-indol-5-yl)phenyl]-4-oxo-1,3,8-triazaspiro[4.5]dec-1-ene-8-carboxylate] | 97 | 229 | > 10000 | 398 | 347
O=C(C1CC1)N1CCC(CN2C(=O)C3(CC3)N=C2c2ccc(-c3ccc4cnccc4c3)cc2)CC1 [compound 20, 6-{[1-(Cyclopropylcarbonyl)piperidin-4-yl]methyl}-5-(4-isoquinolin-6-ylphenyl)-4,6-diazaspiro[2.4]hept-4-en-7-one] | 101 | 158 | 8130 | 646 | 676
Cn1ncc2ccc(-c3ccc(C4=NC5(CC5)C(=O)N4C[C@@H]4CCN(C(=O)C5CC5)C4)cc3)cc21 [compound 27, 6-{[(3R)-1-(Cyclopropylcarbonyl)pyrrolidin-3-yl]methyl}-5-[4-(1-methyl-1H-indazol-6-yl)phenyl]-4,6-diazaspiro[2.4]hept-4-en-7-one] | 100 | 70.8 | > 10000 | 251 | 120
O=C(C1CC1)N1CCC(CN2C(=O)C3(CC3)N=C2c2ccc(-c3ccc4[nH]ncc4c3)cc2)CC1 [compound 29, 6-{[1-(Cyclopropylcarbonyl)piperidin-4-yl]methyl}-5-[4-(1H-indazol-5-yl)phenyl]-4,6-diazaspiro[2.4]hept-4-en-7-one] | 81.7 | 933 | > 10000 | 3390 | 2340
O=C(C1CC1)N1CC[C@@H](CN2C(=O)C3(CC3)N=C2c2ccc(-c3ccc4ccncc4c3)cc2)C1 [compound 30, 6-{[(3R)-1-(Cyclopropylcarbonyl)pyrrolidin-3-yl]methyl}-5-(4-isoquinolin-7-ylphenyl)-4,6-diazaspiro[2.4]hept-4-en-7-one] | 108 | 57.5 | > 10000 | 380 | 282
O=C(C1CC1)N1CC[C@@H](CN2C(=O)C3(CC3)N=C2c2ccc(-c3ccc4[nH]ccc4c3)cc2)C1 [compound 31, 6-{[(3R)-1-(Cyclopropylcarbonyl)pyrrolidin-3-yl]methyl}-5-[4-(1H-indol-5-yl)phenyl]-4,6-diazaspiro[2.4]hept-4-en-7-one] | 107 | 21.9 | > 10000 | 28.8 | 35.5
O=C(C1CC1)N1CC[C@@H](CN2C(=O)C3(CCCC3)N=C2c2ccc(-c3ccc4cc[nH]c4c3)cc2)C1 [compound 33, 3-{[(3R)-1-(Cyclopropylcarbonyl)pyrrolidin-3-yl]methyl}-2-[4-(1H-indol-6-yl)phenyl]-1,3-diazaspiro[4.4]non-1-en-4-one] | 109 | 25.7 | > 10000 | 251 | 56.2
Cn1ncc2ccc(-c3ccc(C4=NC5(CCCC5)C(=O)N4C[C@@H]4CCN(C(=O)C5CC5)C4)cc3)cc21 [compound 34, 3-{[(3R)-1-(Cyclopropylcarbonyl)pyrrolidin-3-yl]methyl}-2-[4-(1-methyl-1H-indazol-6-yl)phenyl]-1,3-diazaspiro[4.4]non-1-en-4-one] | 102 | 117 | > 10000 | 776 | 355
O=C(C1CC1)N1CC[C@@H](CN2C(=O)C3(CCCC3)N=C2c2ccc(-c3nc4ccccc4o3)cc2)C1 [compound 36, 2-[4-(1,3-Benzoxazol-2-yl)phenyl]-3-{[(3R)-1-(cyclopropylcarbonyl)pyrrolidin-3-yl]methyl}-1,3-diazaspiro[4.4]non-1-en-4-one] | 96.2 | 550 | > 10000 | 3470 | 1410
Cn1ncc2ccc(-c3ccc(C4=NC5(CC5)C(=O)N4CC4CN(C(=O)C5CC5)C4)cc3)cc21 [compound 38, 6-{[1-(Cyclopropylcarbonyl)azetidin-3-yl]methyl}-5-[4-(1-methyl-1H-indazol-6-yl)phenyl]-4,6-diazaspiro[2.4]hept-4-en-7-one] | 94.9 | 269 | > 10000 | 1200 | 646
O=C(C1CC1)N1CC(CN2C(=O)C3(CC3)N=C2c2ccc(-c3ccc4[nH]ccc4c3)cc2)C1 [compound 40, 6-{[1-(Cyclopropylcarbonyl)azetidin-3-yl]methyl}-5-[4-(1H-indol-5-yl)phenyl]-4,6-diazaspiro[2.4]hept-4-en-7-one] | 106 | 18.6 | > 10000 | 72.4 | 42.7
COC(=O)N1CC2(C1)N=C(c1ccc(-c3ccc4occc4c3)cc1)N(C[C@@H]1CCN(C(=O)c3nccs3)C1)C2=O [compound 957, (R)-methyl 6-(4-(benzofuran-5-yl)phenyl)-8-oxo-7-((1-(thiazole-2-carbonyl)pyrrolidin-3-yl)methyl)-2,5,7-triazaspiro[3.4]oct-5-ene-2-carboxylate] | 13 | > 10000 | > 10000 | > 10000 | 
COC(=O)N1CC[C@@H](CN2C(=O)C3(CN(C(=O)OC)C3)N=C2c2ccc(-c3ccc4cccnc4c3)cc2)C1 [compound 963, (S)-methyl 7-((1-(methoxycarbonyl)pyrrolidin-3-yl)methyl)-8-oxo-6-(4-(quinolin-7-yl)phenyl)-2,5,7-triazaspiro[3.4]oct-5-ene-2-carboxylate] | 62 | ~10200 | > 10000 | > 10000 | 
